For 2 compounds, inhibition results are on record in ChEMBL document CHEMBL2375355, “Practical synthesis of a chromene analog for use as a retinoic acid receptor alpha antagonist lead compound” (Eur J Med Chem, 2013).

Format in all cases: cell-based
Experiment [1] concerns the target T1, Retinoic acid receptor alpha (Homo sapiens) (UniProt P10276).
T1 sequence (whole entry): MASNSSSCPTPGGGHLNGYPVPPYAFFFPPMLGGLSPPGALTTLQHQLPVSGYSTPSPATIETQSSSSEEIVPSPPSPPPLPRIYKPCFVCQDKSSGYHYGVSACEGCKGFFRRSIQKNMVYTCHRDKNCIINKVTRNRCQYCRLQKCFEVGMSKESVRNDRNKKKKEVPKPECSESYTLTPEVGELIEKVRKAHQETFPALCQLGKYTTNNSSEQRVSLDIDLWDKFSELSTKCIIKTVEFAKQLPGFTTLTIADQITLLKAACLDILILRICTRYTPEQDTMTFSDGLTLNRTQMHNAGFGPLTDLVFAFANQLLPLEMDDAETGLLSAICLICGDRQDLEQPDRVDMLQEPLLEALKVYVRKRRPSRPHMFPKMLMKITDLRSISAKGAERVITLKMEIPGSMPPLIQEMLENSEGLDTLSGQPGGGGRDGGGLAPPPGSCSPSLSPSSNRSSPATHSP
Kind of experiment: Antagonist activity at RARalpha in human MCF7 cells assessed as inhibition of ATRA-induced luciferase activity at 0.1 to 1 nM after 48 hrs by luciferase reporter gene assay. For orientation: In a reporter assay the amount or activity of a reporter protein is the signal.

In experiment [2] the target is T1, Retinoic acid receptor alpha (Homo sapiens). Kind of experiment: Antagonist activity at RARalpha in human MCF7 cells assessed as inhibition of ATRA-induced luciferase activity after 48 hrs by luciferase reporter gene assay.
Experiment [3] has the same target. Put plainly: Antagonist activity at RARalpha in human MCF7 cells assessed as inhibition of ATRA-induced luciferase activity at 10 nM after 48 hrs by luciferase reporter gene assay.

The structures appear in SMILES notation. Activity calls are given as the source filed them. The calls are words filed in the database; no cut-off is given here.

On to `Cc1ccc(C2=CC(C)(C)Oc3c(Br)cc(C(=O)Nc4ccc(C(=O)O)c(F)c4)cc32)cc1`, for which the inhibition entry in experiment [1] was “Active”.

As for `Cc1ccc(C2=CC(C)(C)Oc3c(Br)cc(C(=O)Nc4ccc(C(=O)O)cc4)cc32)cc1`, the inhibition result in experiment [2] was “Dose-dependent effect”. The inhibition result in experiment [3] was “Active”.
